Results from patent US11844790B2, “Methods of treating hidradenitis suppurativa” (CHEMOCENTRYX, INC., priority 2020, dated 2023).
Marks after values point to notes of the source that are not given here.

Tests used:
[1] = Solubility of Avacopan as a function of pH; type: physicochemical; conditions: pH value of 3 or above (gastric fluid)
[2] = tested on: patients with moderate-to-severe HS; conditions: human, in vivo
Method: (§1) The study is a randomized, double-blind, placebo-controlled, three group Phase 2 trial in approximately 390 subjects with moderate to severe hidradenitis suppurativa (Hurley stage II or III). Subjects will be randomized 1:1:1 to a treatment of 10 mg Avacopan twice daily, 30 mg Avacopan twice daily or placebo for 12 weeks. Other systemic treatments for HS including anti-TNF-αtreatments are prohibited. Stable antibiotic therapy with doxycycline or minocycline is allowed as specified in the protocol. Subjects treated with 10 mg or 30 mg twice daily during the blinded, placebo-controlled 12-week treatment period will be followed by an additional 24-week, active treatment period during which they will continue to receive the same dose regimen, either 10 mg or 30 mg Avacopan twice daily. Subjects on placebo who complete the blinded, placebo-controlled 12-week period will be re-randomized 1:1 to receive 10 mg or 30 mg Avacopan twice daily during the 24-week active treatment period. During the 24-week active treatment period the treatment assignment to 10 mg or 30 mg twice daily will not be disclosed to the patient, study personnel at the site or the sponsor. Thereafter, all subjects will be followed without study drug for 8 weeks before they exit the study.
(§2) The primary objectives of this clinical trial include: • 1. Evaluation of the efficacy of Avacopan compared to placebo in subjects with Hurley Stage II or III hidradenitis suppurativa (HS) based on subjects achieving a Hidradenitis Suppurativa Clinical Response (HiSCR) after 12 weeks of treatment. HiSCR is defined as at least a 50% reduction in abscess and inflammatory nodule (AN) count with no increase in abscess count and no increase in draining fistula count at Week 12 relative to baseline. • 2. Evaluation of the safety of Avacopan compared to placebo in these subjects based on the adverse event incidence, changes from baseline in laboratory parameters, and vital signs Secondary Objectives
The majority of TEAEs were related to underlying HS and were mild to moderate.

[3] = tested on: patients with moderate HS (Hurley Stage II) or severe HS (Hurley Stage III); experiment: Phase II AURORA clinical trial, Hidradenitis Suppurativa Clinical Response (HiSCR) and secondary efficacy endpoints; type: in vivo, human; conditions: for HiSCR (%) / HiSCR n/N / HiSCR Δ % vs placebo: week 12
Method: as §1
Subjects will be randomized 1:1:1 to receive 10 mg Avacopan twice daily, 30 mg Avacopan twice daily or matching placebo for 12 weeks in a double-blind, placebo-controlled manner.
as §2
The secondary objectives of this study include: • 1. Evaluation of the efficacy of Avacopan compared to placebo in these subjects include: • a. HiSCR: proportion of subjects achieving HiSCR by each timepoint, • b. The subject's global assessment of skin pain numeric rating scale (NRS), • c. The modified Sartorius score, and • d. Achieving an AN count of 0, 1, or 2 • 2. Assessment of subject reported outcomes including health-related quality-of-life changes based on the Short Form-36 version 2 (SF-36 v2), the EuroQOL-5D-5L (EQ-5D-5L), Hidradenitis Suppurativa Quality of Life (HiSQOL) Index, the Dermatology Life Quality Index (DLQI), and the Work Productivity and Activity Impairment Questionnaire: Specific Health Problem (WPAI: SHP) with Avacopan compared to placebo. • 3. Evaluation of the pharmacokinetic profile of Avacopan in subjects with HS. • 4. Evaluation of the safety and efficacy of Avacopan treatment from Day 1 by each timepoint up to Week 44 in subjects with HS. • 5. Evaluation of the efficacy of avacopan compared to placebo in these subjects include: • a. The Sartorius score, International HS Severity Scoring System (IHS4) score, HS Physician Global Assessment (HS-PGA), • b. Proportion of subjects who experienced flare, who experienced loss of response during Period 2, who received oral antibiotic rescue therapy or lesion intervention, and who received disallowed opioid pain therapy, and • c. The duration of flare in days. • 6. Evaluation of health-economic information. Study Treatments
The International Hidradenitis Suppurativa Severity Score (IHS4) is simple to calculate and validated with the use of existing physician-derived outcomes such as HS-PGA, Hurley classification, MSS or Expert Opinion classification) and patient-reported outcome measure (DLQI). […]

[4] = Avacopan 10 mg BID, All patients
[5] = Avacopan 10 mg BID, Hurley Stage II
[6] = Avacopan 10 mg BID, Hurley Stage III
[7] = Avacopan 30 mg BID, All patients
[8] = Avacopan 30 mg BID, Hurley Stage II
[9] = Avacopan 30 mg BID, Hurley Stage III

Q: Which solubility [1] does the source give for `Cc1ccc(NC(=O)[C@H]2CCCN(C(=O)c3c(C)cccc3F)[C@H]2c2ccc(NC3CCCC3)cc2)cc1C(F)(F)F` [Avacopan] here?
A: The solubility was “normally insoluble”.

Q: What about the safety profile [2] of the same compound?
A: Its safety profile is “favorable safety profile”.

Q: And the “Serious TEAEs” value ([2]; 12 weeks)?
A: Its value is 1.5%.

Q: What about the “Treatment emergent adverse events (TEAEs) of all types” value ([2]; 12 weeks) of the same compound?
A: The value was 48.5%.

Q: What about the “primary endpoint: proportion of all patients achieving HiSCR against placebo” value ([3]; 10 mg BID and 30 mg BID, combined study population (Hurley Stage II plus III), after 12 weeks) of the same compound?
A: Its value is “not achieved with statistical significance at either dose level”.

Q: What about the “proportion of all patients achieving HiSCR against placebo” value ([3]; 30 mg BID, combined study population, after 12 weeks) of the same compound?
A: The value was “numerical improvement”.

Q: What about the “HiSCR response against placebo” value ([3]; 30 mg BID, pre-specified population of Hurley Stage III (severe) HS patients) of the same compound?
A: Its value is “statistically significant higher response than placebo”.

Q: What about the “HiSCR (%)” value [3, 4] of the same compound?
A: The value was “(22.4) %”.

Q: What about the “HiSCR n/N” value [3, 4] of the same compound?
A: Its value is 30/134.

Q: And the “HiSCR Δ % vs placebo” value [3, 4]?
A: The value was −8.2%.

Q: And the “HiSCR (%)” value [3, 5]?
A: Its value is “(21.4) %”.

Q: And the “HiSCR n/N” value [3, 5]?
A: The value was 18/84.

Q: What about the “HiSCR Δ % vs placebo” value [3, 5] of the same compound?
A: Its value is −13.8%.

Q: What about the “HiSCR (%)” value [3, 6] of the same compound?
A: The value was “(24.0) %”.

Q: What about the “HiSCR n/N” value [3, 6] of the same compound?
A: The value was 12/50.

Q: And the “HiSCR Δ % vs placebo” value [3, 6]?
A: The value was 1.8%.

Q: What about the “HiSCR (%)” value [3, 7] of the same compound?
A: The value was “(35.1) %”.

Q: And the “HiSCR n/N” value [3, 7]?
A: The value was 47/134.

Q: What about the “HiSCR Δ % vs placebo” value [3, 7] of the same compound?
A: Its value is 4.4%.

Q: What about the “HiSCR (%)” value [3, 8] of the same compound?
A: Its value is “(31.0) %”.

Q: What about the “HiSCR n/N” value [3, 8] of the same compound?
A: Its value is 27/87.

Q: What about the “HiSCR Δ % vs placebo” value [3, 8] of the same compound?
A: Its value is −4.3%.

Q: And the “HiSCR (%)” value [3, 9]?
A: Its value is “(42.6) %”.

Q: And the “HiSCR n/N” value [3, 9]?
A: The value was 20/47.

Q: And the “HiSCR Δ % vs placebo” value ([3]; Avacopan 30 mg BID, Hurley Stage III, p = 0.0349)?
A: The value was 20.3* %.

Q: And the “AN (abscesses and inflammatory nodules) count, % change from baseline to week 12 relative to placebo” value ([3]; Hurley Stage III patients)?
A: The value was “Favorable reductions”.

Q: And the “International HS Severity Score (IHS4), % change from baseline to week 12 relative to placebo” value ([3]; Hurley Stage III patients)?
A: Its value is “Favorable reductions”.

Q: And the “abscess count, % change from baseline to week 12 relative to placebo” value ([3]; Hurley Stage III patients)?
A: Its value is “Favorable reductions”.

Q: And the “draining fistula count, % change from baseline to week 12 relative to placebo” value ([3]; Hurley Stage III patients)?
A: The value was “Favorable reductions”.
